From patent publication US20230277698A1, “SILICON-CONTAINING LIGAND COMPOUNDS” (Technische Universität München, priority 2020, published 2023)

Columns and labels:
[1] = system: LNCaP tumor-bearing CB17-SCID mice; experiment: Biodistribution studies 24 h p.i.; assay type: in vivo; conditions: 177Lu-labelled, mean±SD, n=4-5; for biodistribution: tumor: LNCaP xenograft; for biodistribution: blood: i.v. tail vein
Procedure: All animal experiments were conducted in accordance with general animal welfare regulations in Germany (German animal protection act, as amended on 18 May 2018, Art. 141 G v. 29.3.2017|626, approval no. 55.2-1-54-2532-71-13) and the institutional guidelines for the care and use of animals. To establish tumor xenografts, LNCaP cells (approx. 10^7 cells) were suspended in 200 μL of a 1:1 mixture (v/v) of DMEM F-12 and Matrigel (BD Biosciences, Germany), and inoculated subcutaneously onto the right shoulder of 6-8 weeks old CB17-SCID mice (Charles River, Sulzfeld, Germany). Mice were used for experiments when tumors had grown to a diameter of 5-10 mm (3-6 weeks after inoculation).
Approximately 5-10 MBq (0.1-0.2 nmol) of the radioactive-labelled PSMA inhibitors were injected into the tail vein of LNCaP tumor-bearing male CB-17 SCID mice and sacrificed after 24 h post injection. Selected organs were removed, weighted and measured in a γ-counter.
FIG. 10 and the following table show the biodistribution data 24 h p.i. of ^177Lu-labeled compounds in LNCaP tumor-bearing CB17-SCID mice. Data are expressed as mean±SD (n=4-5).

[2] = target: human serum albumin (HSA) (Homo sapiens, UniProt P02768); experiment: HSA binding by high performance affinity chromatography (HiPAC); assay type: in vitro ADME; parameters: purchased Daicel, Tokyo, Japan H13H-2433; conditions: lutetium-complexed; Chiralpak HSA column
Procedure: HSA binding of the PSMA-addressing ligands was determined according to a previously published procedure via HPLC (Valko, K.; Nunhuck, S.; Bevan, C.; Abraham, M. H.; Reynolds, D. P., Fast gradient HPLC method to determine compounds binding to human serum albumin. Relationships with octanol/water and immobilized artificial membrane lipophilicity. J Pharm Sci. 2003, 92, 2236-2248). A Chiralpak HSA column (50×3 mm, 5 μm, H13H-2433, Daicel, Tokyo, Japan) was used at a constant flow rate of 0.5 mL/min at rt. Mobile phase A was a freshly prepared 50 mM aqueous solution of NH4OAc (pH 6.9) and mobile phase B was isopropanol (HPLC grade, VWR). The applied gradient for all experiments was 100% A (0 to 3 min), followed by 80% A (3 to 40 min). Prior to the experiment, the column was calibrated using nine reference substances with a HSA binding, known from literature, in the range of 13 to 99% (Valko, K.; Nunhuck, S.; Bevan, C.; Abraham, M. H.; Reynolds, D. P., J Pharm Sci. 2003, 92, 2236-2248; Yamazaki, K.; Kanaoka, M., Computational prediction of the plasma protein-binding percent of diverse pharmaceutical compounds. J Pharm Sci. 2004, 93, 1480-1494). All substances, including the examined PSMA ligands, were dissolved in a 1:1 mixture (v/v) of isopropanol and a 50 mM aqueous solution of NH4OAc (pH 6.9) with a final concentration of 0.5 mg/mL. Non-linear regression was established with the OriginPro 2016G software (Northampton, United States).
FIG. 1 is an exemplary sigmoidal plot, showing the correlation between human serum albumin (HSA) binding of selected reference substances and retention time (tR). The underlying values of HSA binding also shown in the corresponding table and were obtained from literature (Valko, K.; Nunhuck, S.; Bevan, C.; Abraham, M. H.; Reynolds, D. P., J Pharm Sci. 2003, 92, 2236-2248; Yamazaki, K.; Kanaoka, M., J Pharm Sci. 2004, 93, 1480-1494). Log tR: logarithmic value of experimentally determined retention time. Log K HSA: logarithmic value of HSA binding values.

Chain of human serum albumin (HSA) (P02768 25-609): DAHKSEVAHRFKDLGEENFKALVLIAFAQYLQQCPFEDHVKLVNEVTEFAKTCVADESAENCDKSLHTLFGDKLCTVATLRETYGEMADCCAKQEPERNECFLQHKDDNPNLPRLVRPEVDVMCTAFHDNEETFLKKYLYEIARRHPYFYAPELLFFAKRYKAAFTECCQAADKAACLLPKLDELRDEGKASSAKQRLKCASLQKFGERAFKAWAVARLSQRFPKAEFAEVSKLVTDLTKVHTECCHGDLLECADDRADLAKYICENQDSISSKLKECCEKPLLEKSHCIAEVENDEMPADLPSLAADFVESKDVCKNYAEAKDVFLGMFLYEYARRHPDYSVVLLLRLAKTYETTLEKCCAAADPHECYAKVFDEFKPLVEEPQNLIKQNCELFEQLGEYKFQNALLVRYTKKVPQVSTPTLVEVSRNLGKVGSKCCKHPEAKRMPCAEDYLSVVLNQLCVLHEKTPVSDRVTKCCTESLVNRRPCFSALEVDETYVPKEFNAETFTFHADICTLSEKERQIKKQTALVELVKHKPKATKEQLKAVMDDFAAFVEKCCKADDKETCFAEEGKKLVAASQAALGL

Structure (SMILES) | biodistribution: tumor [1] [% ID/g] | biodistribution: blood [1] [% ID/g] | biodistribution: bone [1] [% ID/g] | biodistribution: heart [1] [% ID/g] | biodistribution: intestine [1] [% ID/g] | biodistribution: kidneys [1] [% ID/g] | biodistribution: liver [1] [% ID/g] | biodistribution: lung [1] [% ID/g] | biodistribution: muscle [1] [% ID/g] | biodistribution: pancreas [1] [% ID/g] | biodistribution: spleen [1] [% ID/g] | biodistribution: stomach [1] [% ID/g] | HSA-binding HiPAC [2] [%] | biodistribution: adrenals [1] [% ID/g] | biodistribution: parotis [1] [% ID/g] | biodistribution: submandibularis [1] [% ID/g]
CC(C)(C)[Si](O)(c1ccc(C(=O)NC[C@@H](NC(=O)CC[C@@H](C(=O)O)N2CCN(CC(=O)O)CCN(CC(=O)O)CCN(CC(=O)O)CC2)C(=O)N[C@H](CCCCNC(=O)CCC(=O)NCCC[C@@H](NC(=O)CC[C@H](NC(=O)N[C@@H](CCC(=O)O)C(=O)O)C(=O)O)C(=O)O)C(=O)O)cc1)C(C)(C)C [7.3-SiOH] | 7.3 ± 0.8 | 0.002 ± 0.001 | 0.01 ± 0.01 | 0.01 ± 0.01 | 0.45 ± 0.39 | 3.7 ± 1.9 | 0.08 ± 0.03 | 0.03 ± 0.01 | 0.006 ± 0.005 | 0.01 ± 0.01 | 0.21 ± 0.11 | 0.24 ± 0.36 | 96.4 |  |  | 
CC(C)(C)[Si](O)(c1ccc(C(=O)NC[C@@H](NC(=O)CC[C@@H](C(=O)O)N2CCN(CC(=O)O)CCN(CC(=O)O)CCN(CC(=O)O)CC2)C(=O)N[C@H](CO)C(=O)NCCC(=O)NCCC(=O)NCCC[C@@H](NC(=O)CC[C@H](NC(=O)N[C@@H](CCC(=O)O)C(=O)O)C(=O)O)C(=O)O)cc1)C(C)(C)C [C007-SiOH] | 5.4 ± 0.8 | 0.003 ± 0.001 | 0.02 ± 0.01 | 0.02 ± 0.01 | 0.13 ± 0.08 | 3.5 ± 1.4 | 0.40 ± 0.13 | 0.04 ± 0.01 | 0.004 ± 0.001 | 0.01 ± 0.01 | 0.40 ± 0.10 | 0.04 ± 0.01 | 86.3 | 0.20 ± 0.01 | 0.06 ± 0.03 | 0.03 ± 0.01
CC(C)(C)[Si](O)(c1ccc(C(=O)NC[C@@H](NC(=O)CC[C@@H](C(=O)O)N2CCN(CC(=O)O)CCN(CC(=O)O)CCN(CC(=O)O)CC2)C(=O)NCC(=O)N[C@@H](CCCCNC(=O)CCC(=O)NCCC[C@@H](NC(=O)CC[C@H](NC(=O)N[C@@H](CCC(=O)O)C(=O)O)C(=O)O)C(=O)O)C(=O)O)cc1)C(C)(C)C [E102-SiOH] | 4.4 ± 0.6 | 0.002 ± 0.001 | 0.03 ± 0.01 | 0.02 ± 0.02 | 0.43 ± 0.31 | 3.3 ± 2.9 | 0.05 ± 0.02 | 0.04 ± 0.02 | 0.001 ± 0.001 | 0.01 ± 0.01 | 0.13 ± 0.10 | 0.08 ± 0.07 | 95.1 | 0.05 ± 0.03 | 0.02 ± 0.01 | 0.01 ± 0.01
CC(C)(C)[Si](O)(c1ccc(C(=O)NC[C@@H](NC(=O)CCCCCNC(=O)CCCNC(=O)CC[C@@H](NC(=O)CCC(NC(=O)N[C@@H](CCC(=O)O)C(=O)O)C(=O)O)C(=O)O)C(=O)NCC(=O)N[C@@H](CCCCNC(=O)CC[C@@H](C(=O)O)N2CCN(CC(=O)O)CCN(CC(=O)O)CCN(CC(=O)O)CC2)C(=O)O)cc1)C(C)(C)C (some centres unmarked) [E104-SiOH] |  |  |  |  |  |  |  |  |  |  |  |  | 85.8 |  |  | 
CC(C)(C)[Si](O)(c1ccc(C(=O)N[C@H](CCC(=O)NC[C@@H](NC(=O)CC[C@@H](C(=O)O)N2CCN(CC(=O)O)CCN(CC(=O)O)CCN(CC(=O)O)CC2)C(=O)NCCCCCC(=O)NCCC[C@@H](NC(=O)CC[C@H](NC(=O)N[C@@H](CCC(=O)O)C(=O)O)C(=O)O)C(=O)O)C(=O)O)cc1)C(C)(C)C [P105-SiOH] | 6.3 ± 2.1 | 0.004 ± 0.003 | 0.02 ± 0.01 | 0.01 ± 0.01 | 0.08 ± 0.05 | 4.2 ± 2.5 | 0.37 ± 0.07 | 0.04 ± 0.01 | 0.004 ± 0.001 | 0.01 ± 0.01 | 0.31 ± 0.10 | 0.02 ± 0.01 | 97.8 | 0.12 ± 0.01 | 0.07 ± 0.03 | 0.03 ± 0.01
CC(C)(C)[Si](O)(c1ccc(C[N+](C)(C)CC(=O)NCCC[C@@H](NC(=O)CC[C@@H](C(=O)O)N2CCN(CC(=O)O)CCN(CC(=O)O)CCN(CC(=O)O)CC2)C(=O)NCCCCCC(=O)NCCC[C@@H](NC(=O)CC[C@H](NC(=O)N[C@@H](CCC(=O)O)C(=O)O)C(=O)O)C(=O)O)cc1)C(C)(C)C [P110-SiOH] |  |  |  |  |  |  |  |  |  |  |  |  | 31.3 |  |  | 
O=C(O)CC[C@H](NC(=O)N[C@@H](CCCCNC(=O)[C@H](Cc1ccc2ccccc2c1)NC(=O)[C@H]1CC[C@H](CNC(=O)CN2CCN(CC(=O)O)CCN(CC(=O)O)CCN(CC(=O)O)CC2)CC1)C(=O)O)C(=O)O [PSMA-617, reference compound] | 7.5 ± 0.9 | 0.006 ± 0.01 | 0.03 ± 0.01 | 0.01 ± 0.01 | 0.12 ± 0.08 | 1.4 ± 0.4 | 0.12 ± 0.06 | 0.04 ± 0.01 | 0.01 ± 0.01 | 0.01 ± 0.01 | 0.08 ± 0.01 | 0.02 ± 0.01 | 74.7 | 0.13 ± 0.12 |  | 
CC(C)(C)[Si](F)(c1ccc(C(=O)NC[C@@H](NC(=O)CC[C@@H](C(=O)O)N2CCN(CC(=O)O)CCN(CC(=O)O)CCN(CC(=O)O)CC2)C(=O)N[C@H](CCCCNC(=O)CCC(=O)NCCC[C@@H](NC(=O)CC[C@H](NC(=O)N[C@@H](CCC(=O)O)C(=O)O)C(=O)O)C(=O)O)C(=O)O)cc1)C(C)(C)C [rhPSMA-7.3, reference compound] | 7.6 ± 0.5 | 0.004 ± 0.002 | 0.02 ± 0.01 | 0.03 ± 0.01 | 0.12 ± 0.03 | 13.2 ± 6.7 | 0.22 ± 0.03 | 0.06 ± 0.02 | 0.012 ± 0.004 | 0.02 ± 0.01 | 0.51 ± 0.22 | 0.05 ± 0.01 | 98.5 |  | 0.22 ± 0.16 | 0.05 ± 0.02
